The values that follow come from patent publication US4725580A (Sanofi, priority 1985, dated 1988).

Starred links: 1 amine or outer side, 2 acyl side, 3 side chain; linkers in the order of their positions; H or OH if unused. Non-standard residues stand in square brackets, D forms with d. Residues, ends and D or L forms follow the SMILES beside them. *: point of attachment. Propanoyl(3-(3-pyridyl)) = O=C(CCc1cccnc1)*; Propanoyl(3-(4-pyridyl)) = O=C(CCc1ccncc1)*; Acetyl(pyridin-2-yl) = O=C(Cc1ccccn1)*; Sta = CC(C)C[C@H](N)[C@@H](O)CC(=O)O; Acetyl(3-pyridyl) = O=C(Cc1cccnc1)*; Acetyl(4-pyridyl) = O=C(Cc1ccncc1)*; X3 = O=C(CC1CCCN([*:1])C1)[*:2]; Nicotinoyl = O=C(c1cccnc1)*; X2 = O=C(CCC(=O)*)c1ccccn1; X6 = O=C(CCC(=O)*)c1cccnc1; X5 = O=C(CCC(O)c1ccccn1)*; X7 = O=C(CCC(O)c1cccnc1)*; Nle = CCCC[C@H](N)C(=O)O; X1 = O=C(CCCc1ccccn1)*; X8 = O=C(CCCc1cccnc1)*; Boc = CC(C)(C)OC(=O)*

The target of this test is T1, human plasma renin (Homo sapiens, UniProt P00797).
T1 construct: from tissue; host or cells: human plasma pool
T1 sequence (P00797 67-406): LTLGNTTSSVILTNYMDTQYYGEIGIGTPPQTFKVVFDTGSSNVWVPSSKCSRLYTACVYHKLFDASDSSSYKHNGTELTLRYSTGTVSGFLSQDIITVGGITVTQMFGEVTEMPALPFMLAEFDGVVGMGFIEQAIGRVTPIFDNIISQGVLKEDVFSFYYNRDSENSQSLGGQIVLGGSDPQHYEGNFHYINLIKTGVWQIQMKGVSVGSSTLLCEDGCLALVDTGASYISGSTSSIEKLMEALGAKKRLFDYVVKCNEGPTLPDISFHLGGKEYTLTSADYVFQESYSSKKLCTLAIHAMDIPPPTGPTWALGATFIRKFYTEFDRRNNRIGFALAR
The experiment in a line: Inhibition of human plasma renin activity (PRA) in vitro, angiotensin I released measured by radioimmunoassay. The class given is biochemical. The settings on record: human plasma pool rich in renin, 60 minutes at 37° C., phosphate buffer pH 7.4; 5 to 10 doses; read-out: Inhibition of human PRA -log IC50 M pH 7.4 (converted). The method, then:
The products according to the invention were studied for their therapeutic properties and especially their inhibitory action on enzymes. More particularly, the compounds were evaluated "in vitro" in terms of their inhibition of human plasma renin activity (PRA).
Human plasma contains the substrate angiotensinogen and the enzyme renin. […] An inhibitor of the conversion enzyme, phenylmethylsulfonyl fluoride (PMSF), is added to the incubation medium.
420 microliters of human plasma
11 to 50 microliters of the product to be studied, at variable concentrations
A solution of acetic acid in methaol (19/1 by volume) and a solution of sodium hydroxide in methanol (2/1 by volume) are prepared. In a mixture of equal volumes of these 2 solutions, a 0.001M stock solution of the peptide is prepared. The subsequent dilutions of the peptide are then made up in the phosphate buffer.
The results are expressed by their logarithmic value (-log IC50).
In the case of `CCCC[C@H](NC(=O)[C@H](Cc1ccccc1)NC(=O)CCC(=O)c1ccccn1)C(=O)N[C@@H](CC(C)C)[C@@H](O)CC(=O)N[C@@H](CC(C)C)C(=O)N[C@@H](Cc1ccccc1)C(=O)OC` [SR 42793] (X2-F[Nle][Sta]LF-OMe), the half-inhibitory concentration (IC50) – broadly, the midpoint of a concentration-inhibition curve – was 891 nM.
Then `CCCC[C@H](NC(=O)[C@H](Cc1ccccc1)NC(=O)c1cccnc1)C(=O)N[C@@H](CC(C)C)[C@@H](O)CC(=O)N[C@@H](C)C(=O)N[C@@H](CC(C)C)C(=O)OC` [SR 42873, N-(Nicotinoyl)-Phe-Nle-Sta-Ala-Leu-OMe] (Nicotinoyl-F[Nle][Sta]AL-OMe), with 81.3 nM; and `CCCC[C@H](NC(=O)[C@H](Cc1ccccc1)NC(=O)CCC(O)c1ccccn1)C(=O)N[C@@H](CC(C)C)[C@@H](O)CC(=O)N[C@@H](CC(C)C)C(=O)N[C@@H](Cc1ccccc1)C(=O)OC` (stereo partly shown) [SR 42991] (X5-F[Nle][Sta]LF-OMe), with 58.9 nM; and `CCCC[C@H](NC(=O)[C@H](Cc1ccccc1)NC(=O)CCC(=O)c1cccnc1)C(=O)N[C@@H](CC(C)C)[C@@H](O)CC(=O)N[C@@H](CC(C)C)C(=O)N[C@@H](Cc1ccccc1)C(=O)OC` [SR 43108, N--(4-(pyridin-3-yl)-4-oxobutyryl)-Phe--Nle--Sta--Leu--Phe--OMe] (X6-F[Nle][Sta]LF-OMe), with 447 nM.
In the case of `CCCC[C@H](NC(=O)[C@H](Cc1ccccc1)NC(=O)CCC(O)c1cccnc1)C(=O)N[C@@H](CC(C)C)[C@@H](O)CC(=O)N[C@@H](CC(C)C)C(=O)N[C@@H](Cc1ccccc1)C(=O)OC` (stereo partly drawn) [SR 43123, (R,S)--N--(4-(pyridin-3-yl)-4-hydroxybutyryl)-Phe--Nle--Sta--Leu--Phe--OMe] (X7-F[Nle][Sta]LF-OMe) it was 81.3 nM; in that of `CCCC[C@H](NC(=O)[C@H](Cc1ccccc1)NC(=O)Cc1cccnc1)C(=O)N[C@@H](CC(C)C)[C@@H](O)CC(=O)N[C@@H](CC(C)C)C(=O)N[C@@H](Cc1ccccc1)C(=O)OC` [SR 43282, N--(pyridin-3-ylacetyl)-Phe--Nle--Sta--Leu--Phe--OMe] ({Acetyl(3-pyridyl)}-F[Nle][Sta]LF-OMe), 79.4 nM; in that of `CCCC[C@H](NC(=O)[C@H](Cc1ccccc1)NC(=O)Cc1ccccn1)C(=O)N[C@@H](CC(C)C)[C@@H](O)CC(=O)N[C@@H](CC(C)C)C(=O)N[C@@H](Cc1ccccc1)C(=O)OC` [SR 43314, N--(pyridin-2-ylacetyl)-Phe--Nle--Sta--Leu--Phe--OMe] ({Acetyl(pyridin-2-yl)}-F[Nle][Sta]LF-OMe), 295 nM.
Then `CCCC[C@H](NC(=O)[C@H](Cc1ccccc1)NC(=O)CCc1cccnc1)C(=O)N[C@@H](CC(C)C)[C@@H](O)CC(=O)N[C@@H](CC(C)C)C(=O)N[C@@H](Cc1ccccc1)C(=O)OC` [SR 43454, N--(3-(pyridin-3-yl)propionyl)-Phe--Nle--Sta--Leu--Phe--OMe] ({Propanoyl(3-(3-pyridyl))}-F[Nle][Sta]LF-OMe), with 67.6 nM; and `CCCC[C@H](NC(=O)[C@H](Cc1ccccc1)NC(=O)CCCc1ccccn1)C(=O)N[C@@H](CC(C)C)[C@@H](O)CC(=O)N[C@@H](CC(C)C)C(=O)N[C@@H](Cc1ccccc1)C(=O)OC` [SR 43484, N--(4-(pyridin-2-yl)butyryl)-Phe--Nle--Sta--Leu--Phe--OMe] (X1-F[Nle][Sta]LF-OMe), with 100 nM; and `CCCC[C@H](NC(=O)[C@H](Cc1ccccc1)NC(=O)CC1CCCN(C(=O)OC(C)(C)C)C1)C(=O)N[C@@H](CC(C)C)[C@@H](O)CC(=O)N[C@@H](CC(C)C)C(=O)N[C@@H](Cc1ccccc1)C(=O)OC` (stereo partly shown) [SR 43519, N--(N--Boc--piperidin-3-ylacetyl)-Phe--Nle--Sta--Leu--Phe--OMe] (Boc-[X3]F[Nle][Sta]LF-OMe), with 174 nM.
For `CCCC[C@H](NC(=O)[C@H](Cc1ccccc1)NC(=O)CCc1ccncc1)C(=O)N[C@@H](CC(C)C)[C@@H](O)CC(=O)N[C@@H](CC(C)C)C(=O)N[C@@H](Cc1ccccc1)C(=O)OC` [SR 43633, N--(3-(pyridin-4-yl)propionyl)-Phe--Nle--Sta--Leu--Phe--OMe] ({Propanoyl(3-(4-pyridyl))}-F[Nle][Sta]LF-OMe), the 50% inhibitory concentration (IC50) was 204 nM.
In the case of `CCCC[C@H](NC(=O)[C@H](Cc1ccccc1)NC(=O)Cc1ccncc1)C(=O)N[C@@H](CC(C)C)[C@@H](O)CC(=O)N[C@@H](CC(C)C)C(=O)N[C@@H](Cc1ccccc1)C(=O)OC` [SR 43781, N--(pyridin-4-ylacetyl)-Phe--Nle--Sta--Leu--Phe--OMe] ({Acetyl(4-pyridyl)}-F[Nle][Sta]LF-OMe) it was 132 nM.
Then `CCCC[C@H](NC(=O)[C@H](Cc1ccccc1)NC(=O)CCCc1cccnc1)C(=O)N[C@@H](CC(C)C)[C@@H](O)CC(=O)N[C@@H](CC(C)C)C(=O)N[C@@H](Cc1ccccc1)C(=O)OC` [SR 43782, N--(4-(pyridin-3-yl)butyryl)-Phe--Nle--Sta--Leu--Phe--OMe] (X8-F[Nle][Sta]LF-OMe), with 41.7 nM.
